SMILES strings stand for the structures.

Consider 2 compounds from ChEMBL document CHEMBL4270577, “Synthesis, anticancer activity and molecular modeling studies of 1,2,4-triazole derivatives as EGFR inhibitors” (Eur J Med Chem, 2018).

In assay [1] the test system is PANC-1. Nature of the assay: Antiproliferative activity against human PANC1 cells after 48 hrs by propidium iodide staining-based fluorometric analysis. It is filed as functional, cell-based. As to conditions: PANC-1, 48 h.
For assay [2], the system named is A498. Nature of the assay: Growth inhibition of human A498 cells at 10 uM incubated for 48 hrs by sulforhodamine B assay relative to control. The following applies: A498, 48 h, read-out: GI. It is filed as functional. For orientation: Sulforhodamine B stains cellular protein and so reports cell mass.
The test system of assay [3] is SF-539. As to the kind of experiment: Growth inhibition of human SF539 cells at 10 uM incubated for 48 hrs by sulforhodamine B assay relative to control. It is filed as functional. As to conditions: SF-539, 48 h, read-out: GI.
The subject of assay [4] is Hs-578T. As to the kind of experiment: Growth inhibition of human Hs 578T cells at 10 uM incubated for 48 hrs by sulforhodamine B assay relative to control. As to conditions: read-out: GI. Type of assay: functional.
Assay [5] concerns MIA PaCa-2. As to the kind of experiment: Antiproliferative activity against human MIAPaCa2 cells after 48 hrs by propidium iodide staining-based fluorometric analysis. Type of assay: functional, cell-based. The following applies: MIA PaCa-2, 48 h.
Assay [6] has as its system A549. As to the kind of experiment: Growth inhibition of human A549/ATCC cells at 10 uM incubated for 48 hrs by sulforhodamine B assay relative to control. It is filed as functional. As to conditions: A549, 48 h, read-out: GI.
The subject of assay [7] is SK-MEL-2. As to the kind of experiment: Growth inhibition of human SK-MEL-2 cells at 10 uM incubated for 48 hrs by sulforhodamine B assay relative to control. Type of assay: functional. The following applies: SK-MEL-2, 48 h, read-out: GI.
Assay [8] relates to TK-10. Nature of the assay: Growth inhibition of human TK10 cells at 10 uM incubated for 48 hrs by sulforhodamine B assay relative to control. It is filed as functional. The following applies: TK-10, 48 h, read-out: GI.
Assay [9] concerns HOP-92. Nature of the assay: Growth inhibition of human HOP92 cells at 10 uM incubated for 48 hrs by sulforhodamine B assay relative to control. It is filed as functional. As to conditions: HOP-92, 48 h, read-out: GI.
Assay [10] has as its system NCI-H522. As to the kind of experiment: Growth inhibition of human NCI-H522 cells at 10 uM incubated for 48 hrs by sulforhodamine B assay relative to control. It is filed as functional. As to conditions: NCI-H522, 48 h, read-out: GI.
The subject of assay [11] is NCI-H23. As to the kind of experiment: Growth inhibition of human NCI-H23 cells at 10 uM incubated for 48 hrs by sulforhodamine B assay relative to control. It is filed as functional. The following applies: NCI-H23, 48 h, read-out: GI.
The subject of assay [12] is UACC-257. Nature of the assay: Growth inhibition of human UACC257 cells at 10 uM incubated for 48 hrs by sulforhodamine B assay relative to control. The following applies: UACC-257, 48 h, read-out: GI. Type of assay: functional.
Assay [13] deals with HL-60(TB). As to the kind of experiment: Growth inhibition of human HL-60(TB) cells at 10 uM incubated for 48 hrs by sulforhodamine B assay relative to control. It is filed as functional. As to conditions: HL-60, 48 h, read-out: GI.
The subject of assay [14] is T47D. Nature of the assay: Growth inhibition of human T47D cells at 10 uM incubated for 48 hrs by sulforhodamine B assay relative to control. Type of assay: functional. As to conditions: read-out: GI.
The test system of assay [15] is PC-3. Nature of the assay: Growth inhibition of human PC3 cells at 10 uM incubated for 48 hrs by sulforhodamine B assay relative to control. As to conditions: PC-3, 48 h, read-out: GI. It is filed as functional.
Assay [16] has as its system RPMI-8226. As to the kind of experiment: Growth inhibition of human RPMI8226 cells at 10 uM incubated for 48 hrs by sulforhodamine B assay relative to control. It is filed as functional. As to conditions: RPMI-8226, 48 h, read-out: GI.
The subject of assay [17] is OVCAR-8. As to the kind of experiment: Growth inhibition of human OVCAR8 cells at 10 uM incubated for 48 hrs by sulforhodamine B assay relative to control. Type of assay: functional. As to conditions: OVCAR-8, 48 h, read-out: GI.
For assay [18], the system named is SK-OV-3. Nature of the assay: Growth inhibition of human SKOV3 cells at 10 uM incubated for 48 hrs by sulforhodamine B assay relative to control. It is filed as functional. As to conditions: SK-OV-3, 48 h, read-out: GI.
Assay [19] relates to Malme-3M. Nature of the assay: Growth inhibition of human MALME-3M cells at 10 uM incubated for 48 hrs by sulforhodamine B assay relative to control. The following applies: read-out: GI. It is filed as functional.
Assay [20] concerns SF-268. Nature of the assay: Growth inhibition of human SF268 cells at 10 uM incubated for 48 hrs by sulforhodamine B assay relative to control. It is filed as functional. The following applies: SF-268, 48 h, read-out: GI.
For assay [21], the system named is SR. Nature of the assay: Growth inhibition of human SR cells at 10 uM incubated for 48 hrs by sulforhodamine B assay relative to control. As to conditions: read-out: GI. It is filed as functional.
In assay [22] the test system is HT-29. Nature of the assay: Antiproliferative activity against human HT-29 cells after 48 hrs by propidium iodide staining-based fluorometric analysis. It is filed as functional, cell-based. The following applies: HT-29, 48 h.
The test system of assay [23] is CCRF-CEM. Nature of the assay: Growth inhibition of human CCRF-CEM cells at 10 uM incubated for 48 hrs by sulforhodamine B assay relative to control. It is filed as functional. As to conditions: read-out: GI.
The test system of assay [24] is K562. Nature of the assay: Growth inhibition of human K562 cells at 10 uM incubated for 48 hrs by sulforhodamine B assay relative to control. It is filed as functional. The following applies: K562, 48 h, read-out: GI.
Assay [25] relates to SK-MEL-28. Nature of the assay: Growth inhibition of human SK-MEL-28 cells at 10 uM incubated for 48 hrs by sulforhodamine B assay relative to control. Type of assay: functional. The following applies: SK-MEL-28, 48 h, read-out: GI.
In assay [26] the test system is SN12C. As to the kind of experiment: Growth inhibition of human SN12C cells at 10 uM incubated for 48 hrs by sulforhodamine B assay relative to control. Type of assay: functional. The following applies: read-out: GI.
Assay [27] relates to MCF7. Nature of the assay: Growth inhibition of human MCF7 cells at 10 uM incubated for 48 hrs by sulforhodamine B assay relative to control. Type of assay: functional. As to conditions: MCF7, 48 h, read-out: GI.
Assay [28] concerns NCI-H460. As to the kind of experiment: Antiproliferative activity against human H460 cells after 48 hrs by propidium iodide staining-based fluorometric analysis. It is filed as functional, cell-based. As to conditions: NCI-H460, 48 h.
The test system of assay [29] is HOP-62. Nature of the assay: Growth inhibition of human HOP62 cells at 10 uM incubated for 48 hrs by sulforhodamine B assay relative to control. As to conditions: HOP-62, 48 h, read-out: GI. Type of assay: functional.
Assay [30] deals with UACC-62. As to the kind of experiment: Growth inhibition of human UACC62 cells at 10 uM incubated for 48 hrs by sulforhodamine B assay relative to control. It is filed as functional. The following applies: UACC-62, 48 h, read-out: GI.
The subject of assay [31] is SK-MEL-5. Nature of the assay: Growth inhibition of human SK-MEL-5 cells at 10 uM incubated for 48 hrs by sulforhodamine B assay relative to control. It is filed as functional. As to conditions: SK-MEL-5, 48 h, read-out: GI.
Assay [32] concerns UO-31. Nature of the assay: Growth inhibition of human UO31 cells at 10 uM incubated for 48 hrs by sulforhodamine B assay relative to control. Type of assay: functional. As to conditions: UO-31, 48 h, read-out: GI.
Assay [33] relates to SNB-75. As to the kind of experiment: Growth inhibition of human SNB75 cells at 10 uM incubated for 48 hrs by sulforhodamine B assay relative to control. Type of assay: functional. As to conditions: SNB-75, 48 h, read-out: GI.
Assay [34] has as its system U-251. Nature of the assay: Growth inhibition of human U251 cells at 10 uM incubated for 48 hrs by sulforhodamine B assay relative to control. As to conditions: U-251, 48 h, read-out: GI. Type of assay: functional.
The subject of assay [35] is MDA-MB-435. As to the kind of experiment: Growth inhibition of human MDA-MB-435 cells at 10 uM incubated for 48 hrs by sulforhodamine B assay relative to control. It is filed as functional. The following applies: MDA-MB-435, 48 h, read-out: GI.
In assay [36] the test system is NCI-H322M. As to the kind of experiment: Growth inhibition of human NCI-H322M cells at 10 uM incubated for 48 hrs by sulforhodamine B assay relative to control. As to conditions: read-out: GI. It is filed as functional.
In assay [37] the test system is HT-29. As to the kind of experiment: Growth inhibition of human HT-29 cells at 10 uM incubated for 48 hrs by sulforhodamine B assay relative to control. The following applies: HT-29, 48 h, read-out: GI. Type of assay: functional.
Assay [38] deals with NCI-H226. Nature of the assay: Growth inhibition of human NCI-H226 cells at 10 uM incubated for 48 hrs by sulforhodamine B assay relative to control. The following applies: NCI-H226, 48 h, read-out: GI. Type of assay: functional.
In assay [39] the test system is MOLT-4. Nature of the assay: Growth inhibition of human MOLT4 cells at 10 uM incubated for 48 hrs by sulforhodamine B assay relative to control. It is filed as functional. As to conditions: MOLT-4, 48 h, read-out: GI.
The subject of assay [40] is KM12. Nature of the assay: Growth inhibition of human KM12 cells at 10 uM incubated for 48 hrs by sulforhodamine B assay relative to control. It is filed as functional. The following applies: KM12, 48 h, read-out: GI.
The subject of assay [41] is SW-620. As to the kind of experiment: Growth inhibition of human SW620 cells at 10 uM incubated for 48 hrs by sulforhodamine B assay relative to control. Type of assay: functional. As to conditions: SW-620, 48 h, read-out: GI.
For assay [42], the target named is Tubulin (Homo sapiens) (UniProt P68371+Q9H4B7+P0DPH7+P68366+Q13509+Q71U36+P04350+Q3ZCM7+P07437+P68363+Q9BQE3+Q6PEY2+Q13885+Q9BVA1+Q9BUF5). As to the kind of experiment: Inhibition of tubulin (unknown origin) polymerization assessed as polymerized tubulin level at 5 to 25 uM by fluorescence assay. It is filed as protein-complex assay.

`COc1cc(-c2nc(N)n(CC(=O)Nc3ccc(/C(C)=N\O)cc3)n2)cc(OC)c1OC`: the half-maximal inhibitory concentration (IC50) (usually the midpoint of a concentration-inhibition curve) was determined as 5.2 µM in [1], 5.7 µM in assay [5], 7.9 µM in assay [22] and 7.9 µM in assay [28]. Also, the inhibition of growth at 10 µM in assay [2] came out at 11.2%; in [3], 2.92%; in assay [4], 17.9%; in [6], 25.8%; in assay [7] it was 8%; in assay [8], 9.11%. Besides, the inhibition of growth at 10 µM was 11.8% in assay [9]; 29.2% in assay [10]; 4.21% in [11]; 36.3% in [12]; 8.41% in assay [13]; 8.77% in assay [14]. For the same compound, the inhibition of growth at 10 µM worked out at 23.3% in [15]; 5.69% in [16]; 25.7% in [17]; 12.1% in assay [18]; 3.25% in assay [19]; 6.49% in assay [20]. For the same compound, the inhibition of growth at 10 µM is 17% in assay [21]; 15.5% in [23]; 3.93% in [24]; 5.76% in [25]; 4% in [26]; 10.8% in [27]. Moreover, the inhibition of growth at 10 µM was 5.54% in assay [29]; 16.4% in [30]; 2.08% in assay [31]; 20.5% in assay [32]; 25.9% in assay [33]; 14.2% in assay [34]. The inhibition of growth at 10 µM in assay [35] was found to be 18%; in [36], 5.82%; in assay [37] it was 13.6%; in assay [38], 5.19%; in assay [39], 8.41%; in [40], 2.75%. In addition, in assay [41], the inhibition of growth at 10 µM was found to be 4.8%.
With `CC[C@]1(O)C[C@H]2CN(CCc3c([nH]c4ccccc34)[C@@](C(=O)OC)(c3cc4c(cc3OC)N(C=O)[C@H]3[C@@](O)(C(=O)OC)[C@H](OC(C)=O)[C@]5(CC)C=CCN6CC[C@]43[C@@H]65)C2)C1`, in assay [42], the Activity stood at 722 a.u.
